# Measurements published in article PMC7673538 (PLoS Biology, 2020).
# Several values for one entry are separate records, joined by “and”; a condition that tells them apart may be missing. Equal values may be shown once. Read-outs that look alike come from different tables or passages of the source.
# Experiments:
# CV-B3 = assay: microbe, parasite or virus in culture; assay type: cell-based, coxsackievirus B3
# CV-A24v = assay: microbe, parasite or virus in culture; assay type: cell-based, coxsackievirus A24v; details: for EC50: Coxsackievirus
# PV-1 = assay: microbe, parasite or virus in culture; assay type: cell-based, poliovirus 1; details: for EC50: Enterovirus C
# [1] = tested on: all representative viruses; assay type: cell-based
# Rluc-CV-B3 = assay type: cell-based; details: Fig 3B
# [2] = Enterovirus B, CVB3, HeLa R19, read-out: CV-B3 Exp 1 EC50
# [3] = Enterovirus B, CVB3, HeLa R19, read-out: CV-B3 Exp2 EC50
# [4] = Enterovirus B, CVB3, HeLa R19, read-out: EC50 HelaR19 Average
# [5] = Enterovirus B, CVB3, HeLa R19, read-out: Exp 1 EC50 HelaR19
# [6] = Enterovirus B, CVB3, HeLa R19, read-out: Exp 2 EC50 HelaR19
# [7] = HeLa R19, read-out: EC50 CV-A24v strain 110386
# [8] = HeLa R19, read-out: EC50 CV-A24v strain 110389
# [9] = HeLa R19, read-out: EC50 CV-A24v strain 110390
# [10] = HeLa R19, read-out: EC50 CV-A24v strain 110392
smiles,measurement,setting,value
"COc1ccc(N(Cc2ccc(F)cc2)C(=O)c2ccco2)cc1 [Compound 1, N-(4-fluorobenzyl)-N-(4-methoxyphenyl)furan-2-carboxamide]",antiviral activity against CV-B3 (in words),CV-B3,inhibited
same,"Figure 7 dose-response raw data, CV-B3 (triplicate values)",CV-B3; Concentration 0.001 µM,8.4087 and 12.9113 and 13.3731
same,"Figure 7 dose-response raw data, CV-B3 (triplicate values)",CV-B3; Concentration 0.0046 µM,8.524 and 14.1813 and 13.8349
same,"Figure 7 dose-response raw data, CV-B3 (triplicate values)",CV-B3; Concentration 0.0137 µM,8.178 and 10.6023 and 11.4104
same,"Figure 7 dose-response raw data, CV-B3 (triplicate values)",CV-B3; Concentration 0.0412 µM,8.755 and 10.1405 and 13.8349
same,"Figure 7 dose-response raw data, CV-B3 (triplicate values)",CV-B3; Concentration 0.1235 µM,8.6396 and 9.794 and 10.7177
same,"Figure 7 dose-response raw data, CV-B3 (triplicate values)",CV-B3; Concentration 0.3704 µM,31.7298 and 16.0285 and 26.5345
same,"Figure 7 dose-response raw data, CV-B3 (triplicate values)",CV-B3; Concentration 1.1111 µM,69.1798 and 64.4511 and 60.4699
same,"Figure 7 dose-response raw data, CV-B3 (triplicate values)",CV-B3; Concentration 3.3333 µM,108.671 and 85.22 and 102.264
same,"Figure 7 dose-response raw data, CV-B3 (triplicate values)",CV-B3; Concentration 10 µM,111.619 and 82.0162 and 97.2661
same,EC50,"CV-B3; Enterovirus B, CVB3, HeLa R19",1.92 ± 0.04 µM
same,EC50,"CV-B3; Enterovirus B, CVB3, HeLa R19, read-out: CV-B3 EC50 Average",1.92 µM
same,EC50,CV-B3; [2],1.87 µM
same,EC50,CV-B3; [3],1.96 µM
same,EC50,"CV-B3; Enterovirus B, CVB3, HeLa R19, read-out: EC50 CV-B3",1.71 ± 0.07 µM
same,EC50,"CV-B3; Enterovirus B, CVB3, HeLa R19, read-out: EC50 CVB3 Experiement 3",1.78 µM
same,EC50,"CV-B3; Enterovirus B, CVB3, HeLa R19, read-out: EC50 CVB3 Experiment 1",1.72 µM
same,EC50,"CV-B3; Enterovirus B, CVB3, HeLa R19, read-out: EC50 CVB3 Experiment 2",1.62 µM
same,EC50,CV-B3; [4],1.76 µM
same,EC50,CV-B3; [5],1.65 µM
same,EC50,CV-B3; [6],1.87 µM
same,"Figure 7 dose-response raw data, CV-A24v (triplicate values)",CV-A24v; Concentration 0.0046 µM,10.497 and 8.759 and 8.625
same,"Figure 7 dose-response raw data, CV-A24v (triplicate values)",CV-A24v; Concentration 0.0137 µM,9.388 and 8.898 and 11.4747
same,"Figure 7 dose-response raw data, CV-A24v (triplicate values)",CV-A24v; Concentration 0.0412 µM,9.388 and 8.898 and 11.4747
same,"Figure 7 dose-response raw data, CV-A24v (triplicate values)",CV-A24v; Concentration 0.1235 µM,8.529 and 8.161 and 15.8928
same,"Figure 7 dose-response raw data, CV-A24v (triplicate values)",CV-A24v; Concentration 0.3704 µM,10.8611 and 15.1565 and 15.6474
same,"Figure 7 dose-response raw data, CV-A24v (triplicate values)",CV-A24v; Concentration 1.1111 µM,10.0021 and 16.3837 and 13.9292
same,"Figure 7 dose-response raw data, CV-A24v (triplicate values)",CV-A24v; Concentration 11.1111 µM,8.182 and 7.259 and 9.382
same,EC50,CV-A24v; [7],> 30 µM
same,EC50,CV-A24v; [8],> 30 µM
same,EC50,CV-A24v; [9],> 30 µM
same,EC50,CV-A24v; [10],> 30 µM
same,"Figure 7 dose-response raw data, PV-1 (triplicate values)",PV-1; Concentration 0.0046 µM,10.497 and 8.759 and 8.625
same,"Figure 7 dose-response raw data, PV-1 (triplicate values)",PV-1; Concentration 0.0137 µM,10.497 and 8.759 and 8.625
same,"Figure 7 dose-response raw data, PV-1 (triplicate values)",PV-1; Concentration 0.0412 µM,10.497 and 11.7005 and 9.1598
same,"Figure 7 dose-response raw data, PV-1 (triplicate values)",PV-1; Concentration 0.1235 µM,10.7644 and 8.357 and 9.1598
same,"Figure 7 dose-response raw data, PV-1 (triplicate values)",PV-1; Concentration 0.3704 µM,13.4388 and 8.357 and 9.294
same,"Figure 7 dose-response raw data, PV-1 (triplicate values)",PV-1; Concentration 1.1111 µM,13.4388 and 8.357 and 9.294
same,"Figure 7 dose-response raw data, PV-1 (triplicate values)",PV-1; Concentration 3.3333 µM,10.497 and 11.7005 and 9.1598
same,"Figure 7 dose-response raw data, PV-1 (triplicate values)",PV-1; Concentration 11.1111 µM,10.7644 and 8.357 and 9.1598
same,"Figure 7 dose-response raw data, PV-1 (triplicate values)",PV-1; Concentration 33.3333 µM,13.4388 and 8.357 and 9.294
same,"Figure 7 dose-response raw data, PV-1 (triplicate values)",PV-1; Concentration 100 µM,9.294 and 9.1598
same,EC50,"PV-1; HeLa R19, read-out: EC50 PV-1",> 30 µM
same,EC50,"PV-1; HeLa R19, read-out: EC50 PV-1 Average",> 30 µM
same,EC50,"PV-1; HeLa R19, read-out: EC50 PV-1 Experiement 3",> 30 µM
same,EC50,"PV-1; HeLa R19, read-out: EC50 PV-1 Experiment 1",> 30 µM
same,EC50,"PV-1; HeLa R19, read-out: EC50 PV-1 Experiment 2",> 30 µM
"COc1ccc(N(Cc2ccc(F)cc2)C(=O)c2cc[nH]c2)cc1 [Compound 12a, N-(4-Fluorobenzyl)-N-(4-methoxyphenyl)-1H-pyrrole-3-carboxamide]",cross-resistance of 19d-resistant CV-B3 virus pools (in words),CV-B3,cross-resistant
same,increase of antiviral activity against CV-B3,CV-B3,~25 fold
same,"Figure 7 dose-response raw data, CV-B3 (triplicate values)",CV-B3; Concentration 0.001 µM,10.6023 and 13.4886 and 15.1049
same,"Figure 7 dose-response raw data, CV-B3 (triplicate values)",CV-B3; Concentration 0.0137 µM,31.7298 and 16.0285 and 26.5345
same,"Figure 7 dose-response raw data, CV-B3 (triplicate values)",CV-B3; Concentration 0.3704 µM,108.081 and 95.0938 and 115.255
same,"Figure 7 dose-response raw data, CV-B3 (triplicate values)",CV-B3; Concentration 1.1111 µM,110.307 and 87.92 and 98.0623
same,"Figure 7 dose-response raw data, CV-B3 (triplicate values)",CV-B3; Concentration 3.3333 µM,103.381 and 89.7753 and 100.165
same,"Figure 7 dose-response raw data, CV-B3 (triplicate values)",CV-B3; Concentration 10 µM,102.144 and 95.7122 and 98.0623
same,EC50,"CV-B3; Enterovirus B, CVB3, HeLa",0.01 ± 0.01 µM
same,EC50,"CV-B3; Enterovirus B, CVB3, HeLa R19, […], read-out: EC50 Exp1",0.18 µM
same,EC50,"CV-B3; Enterovirus B, CVB3, HeLa R19, read-out: 50% effective concentration [EC50]",0.08 ± 0.08 µM
same,EC50,CV-B3; [2],0.059 µM
same,EC50,CV-B3; [3],0.095 µM
same,EC50,"CV-B3; Enterovirus B, CVB3, HeLa R19, read-out: EC50 Average",0.0187 µM
same,EC50,"CV-B3; Enterovirus B, CVB3, HeLa R19, read-out: EC50 Exp1",0.017 µM
same,EC50,"CV-B3; Enterovirus B, CVB3, HeLa R19, read-out: EC50 Exp2",0.37 µM
same,EC50,CV-B3; [4],0.0112 µM
same,EC50,CV-B3; [5],0.004 µM
same,EC50,CV-B3; [6],0.0183 µM
same,EC50,"CV-B3; Enterovirus B, CVB3 / genotype 2c, HeLa R19, read-out: EC50 CV-B3 WT",0.02 ± 0.01 µM
same,EC50,CV-B3; read-out: EC50 Exp2,0.21 µM
same,"Figure 7 dose-response raw data, CV-A24v (triplicate values)",CV-A24v; Concentration 0.0046 µM,10.497 and 11.7005 and 9.1598
same,"Figure 7 dose-response raw data, CV-A24v (triplicate values)",CV-A24v; Concentration 0.0137 µM,16.1819 and 13.1094 and 20.3605
same,"Figure 7 dose-response raw data, CV-A24v (triplicate values)",CV-A24v; Concentration 0.0412 µM,16.1819 and 13.1094 and 20.3605
same,"Figure 7 dose-response raw data, CV-A24v (triplicate values)",CV-A24v; Concentration 0.1235 µM,12.9865 and 12.4949 and 21.3437
same,"Figure 7 dose-response raw data, CV-A24v (triplicate values)",CV-A24v; Concentration 0.3704 µM,12.7407 and 14.2155 and 15.1987
same,"Figure 7 dose-response raw data, CV-A24v (triplicate values)",CV-A24v; Concentration 1.1111 µM,10.0369 and 10.7743 and 14.83
same,"Figure 7 dose-response raw data, CV-A24v (triplicate values)",CV-A24v; Concentration 3.3333 µM,9.791 and 10.5285 and 14.2155
same,"Figure 7 dose-response raw data, CV-A24v (triplicate values)",CV-A24v; Concentration 11.1111 µM,82.2926 and 86.3728 and 89.8506
same,"Figure 7 dose-response raw data, CV-A24v (triplicate values)",CV-A24v; Concentration 33.3333 µM,113.496 and 111 and 111.553
same,"Figure 7 dose-response raw data, CV-A24v (triplicate values)",CV-A24v; Concentration 100 µM,106.3 and 102.374 and 110.232
same,EC50,CV-A24v; [7],1.94 ± 0.07 µM
same,EC50,CV-A24v; [8],3.77 ± 0.32 µM
same,EC50,CV-A24v; [9],1.91 ± 0.55 µM
same,EC50,CV-A24v; [10],2.32 ± 0.23 µM
same,inhibition in single-cycle viral replication assay (in words),[1],inhibited all representative viruses
same,"Figure 7 dose-response raw data, PV-1 (triplicate values)",PV-1; Concentration 0.0046 µM,10.497 and 11.7005 and 9.1598
same,"Figure 7 dose-response raw data, PV-1 (triplicate values)",PV-1; Concentration 0.0137 µM,10.497 and 11.7005 and 9.1598
same,"Figure 7 dose-response raw data, PV-1 (triplicate values)",PV-1; Concentration 0.0412 µM,10.7644 and 8.357 and 9.1598
same,"Figure 7 dose-response raw data, PV-1 (triplicate values)",PV-1; Concentration 0.1235 µM,13.4388 and 8.357 and 9.294
same,"Figure 7 dose-response raw data, PV-1 (triplicate values)",PV-1; Concentration 0.3704 µM,10.497 and 11.7005 and 9.1598
same,"Figure 7 dose-response raw data, PV-1 (triplicate values)",PV-1; Concentration 1.1111 µM,10.7644 and 8.357 and 9.1598
same,"Figure 7 dose-response raw data, PV-1 (triplicate values)",PV-1; Concentration 3.3333 µM,13.4388 and 8.357 and 9.294
same,"Figure 7 dose-response raw data, PV-1 (triplicate values)",PV-1; Concentration 100 µM,99.781 and 98.9928 and 101.358
same,EC50,"PV-1; HeLa R19, read-out: EC50 Exp1",3.89 µM
same,EC50,"PV-1; HeLa R19, read-out: EC50 Exp2",3.53 µM
same,EC50,"PV-1; HeLa R19, read-out: EC50 PV-1",3.71 ± 0.18 µM
same,resistance profile against Rluc-CV-B3 2C mutants (in words),Rluc-CV-B3,resembled that of the parental compound 1 and (S)-fluoxetine
same,cytotoxic effect in parallel to single-cycle assay (in words),HeLa R19 cells,none of them showed any cytotoxic effect
